This is an account of results in publication PMC3226715 (Chemical research in toxicology, 2011).

SMILES strings stand for the structures. Some results are limits rather than exact numbers.

Data set [1] deals with GRd. To be noted: rat renal proximal tubule cells treated with DCVC; cited from earlier work.
Data set [2] has as its system MDH. Particulars: rat liver mitochondria in the presence of DCVC; cited from earlier work.
Data set [3] is described as follows: Stability under acidic conditions. The class given is physicochemical. Particulars: 0.2 M HCl/KCl buffer pH 2, several hours at 37°C (data not shown).
Data set [4] is described as follows: Half-life in the presence of GSH. It is filed as physicochemical. To be noted: 0.31 mM compound, 1.02 mM GSH (3:10 molar ratio), phosphate buffer pH 7.4, 37°C.
For data set [5], the target named is T1, porcine heart mitochondrial malate dehydrogenase (MDH) (Sus scrofa, UniProt P00346).
T1 sequence (P00346 25-338): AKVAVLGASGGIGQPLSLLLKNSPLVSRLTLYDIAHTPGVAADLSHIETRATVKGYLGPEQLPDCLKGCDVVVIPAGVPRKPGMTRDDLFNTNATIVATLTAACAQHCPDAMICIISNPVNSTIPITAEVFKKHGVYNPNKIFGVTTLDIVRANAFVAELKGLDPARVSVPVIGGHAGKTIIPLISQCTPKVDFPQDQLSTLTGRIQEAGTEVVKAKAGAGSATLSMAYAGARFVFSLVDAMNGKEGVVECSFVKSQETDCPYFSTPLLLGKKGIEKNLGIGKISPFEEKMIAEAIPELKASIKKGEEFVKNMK
In words: Covalent modification of the model enzyme MDH, anti-biotin immunoblot. It is filed as binding. To be noted: 10 µM NB-DCVCS, 3 h, 37°C, 0.5 mg/mL protein.

Data set [6] in a line: Stability in phosphate buffer pH 7.4. It is filed as physicochemical.
In data set [7] the target is glutathione reductase (GRd) from baker's yeast (Saccharomyces cerevisiae, UniProt P41921). Kind of data set: Covalent modification of the model enzyme GRd, anti-biotin immunoblot. The class given is binding. Particulars: 10 µM NB-DCVCS, 3 h, 37°C, 0.5 mg/mL protein. On the technique in general: A western blot detects proteins with antibodies after separation by electrophoresis.
glutathione reductase (GRd) from baker's yeast, sequence (P41921 whole entry): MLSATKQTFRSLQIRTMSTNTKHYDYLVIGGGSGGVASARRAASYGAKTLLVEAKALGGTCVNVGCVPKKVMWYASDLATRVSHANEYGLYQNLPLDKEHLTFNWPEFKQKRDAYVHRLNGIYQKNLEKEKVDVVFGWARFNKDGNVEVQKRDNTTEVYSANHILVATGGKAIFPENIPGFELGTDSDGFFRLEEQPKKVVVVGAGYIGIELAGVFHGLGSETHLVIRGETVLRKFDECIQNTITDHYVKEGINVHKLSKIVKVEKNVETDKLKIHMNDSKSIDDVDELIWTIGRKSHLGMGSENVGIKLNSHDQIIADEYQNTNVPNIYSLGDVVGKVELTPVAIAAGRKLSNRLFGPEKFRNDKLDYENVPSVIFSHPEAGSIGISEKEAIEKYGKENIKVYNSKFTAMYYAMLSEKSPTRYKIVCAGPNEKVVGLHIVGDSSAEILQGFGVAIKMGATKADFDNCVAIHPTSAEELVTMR

Data set [8] can be described thus: Stability in isolated rat whole blood. The class given is in vitro ADME, male Sprague-Dawley rat. To be noted: 50 µM, 37°C.
Data set [9] has as its system rat kidney cytosol proteins. In words: Binding of NB-DCVCS to kidney cytosolic proteins, anti-biotin immunoblot. On the set-up: species or system male Sprague Dawley rat. To be noted: 6 µg/µL cytosol, 3 h, 37°C.
A short description of data set [10]: Stability in isolated rat plasma. Particulars: 50 µM, 37°C. The class given is in vitro ADME, male Sprague-Dawley rat.

Take `N[C@@H](CSC(Cl)=CCl)C(=O)O` [DCVC]: in data set [1], the GRd activity entry is reported as “inhibited”. Moreover, in [2], the MDH activity entry was “inhibited”.

In the case of `O=C(CCCC[C@@H]1SC[C@@H]2NC(=O)N[C@@H]21)N[C@@H](C[S+]([O-])C(Cl)=CCl)C(=O)O` (stereo partly shown) [NB-DCVCS], the “stability under acidic conditions” value in data set [3] is recorded as “stable”. Also, the “half-life in the presence of GSH” value in [4] is reported as 39.6 min. Besides, the “modification of malate dehydrogenase (immunoblot)” value in data set [5] is “extensively modified”. For the same compound, the “time stable in phosphate buffer” value in [6] (phosphate buffer, 37°C) is listed as “greater than 120 min”. Further, in data set [6] (several hours at 37°C (data not shown)), the “stability in phosphate buffer pH 7.4” value is listed as “stable”. The “modification of glutathione reductase (immunoblot)” value in data set [7] is on record as “extensively modified”. In [8], the “DCVCS formation from NB-DCVCS (amide bond cleavage) in whole blood” value is given as “No DCVCS formation was observed” and the “half-life in whole blood” value turned out to be 68.5 min. For the same compound, the “detection in whole blood after 150 min” value in data set [8] (after 150 min) was “not detectable”. Also, in [9] (312.5 nM to 5 µM NB-DCVCS), the “immunoblot signal of modified kidney cytosol proteins” value is “concentration-dependent increases in signal and the number of bands”. In data set [9], the “NB-DCVCS concentration at which modified proteins were detected” value is given as not below 625 nM. In data set [10], the “DCVCS formation from NB-DCVCS (amide bond cleavage) in plasma” value is listed as “No DCVCS formation was observed” and the half-life in plasma is 40 min. The “detection in plasma after 150 min” value in data set [10] (after 150 min) is given as “not detectable”.
